# Counter-ions that a name gives are not always drawn.
# Key:
# Type in all cases: in vivo
# [1] = test system: Cotton; experiment: Preemergence Herbicidal Activity, Cotton; conditions: Gossypium hirsutum, pre-emergence
# Description: (§1) The herbicidal data in the following Tables 3 and 4 was obtained in the manner described in PCT published application no. WO 85/01939, previously mentioned, usually employing solutions of the herbicidal compound in 50/50 acetone/water mixtures. In those tables, the test compounds are identified by numbers which correspond to those in Table 1, "kg/ha" is kilograms per hectare, and "% C" is percent control.
# [2] = test system: Soybean; experiment: Preemergence Herbicidal Activity, Soybean
# Description: (§2) The herbicidal data in the following Tables 3 and 4 was obtained in the manner described in PCT published application no. […] In those tables, the test compounds are identified by numbers which correspond to those in Table 1, "kg/ha" is kilograms per hectare, and "% C" is percent control.
# [3] = test system: Field Corn; experiment: Preemergence Herbicidal Activity, Field Corn; conditions: Zea mays, pre-emergence
# Description: as §2
# [4] = test system: Rice; experiment: Preemergence Herbicidal Activity, Rice; conditions: Oryza sativa, pre-emergence
# Description: as §2
# [5] = test system: Wheat; experiment: Preemergence Herbicidal Activity, Wheat; conditions: Triticum aestivum, pre-emergence
# Description: as §2
# [6] = test system: Morningglory; experiment: Preemergence Herbicidal Activity, Morningglory; conditions: Ipomoea, pre-emergence
# Description: as §1
# [7] = test system: Velvetleaf; experiment: Preemergence Herbicidal Activity, Velvetleaf; conditions: Abutilon theophrasti, pre-emergence
# Description: as §1
# [8] = test system: Barnyardgrass; experiment: Preemergence Herbicidal Activity, Barnyardgrass; conditions: Echinochloa crus-galli, pre-emergence
# Description: as §2
# [9] = test system: Green Foxtail; experiment: Preemergence Herbicidal Activity, Green Foxtail; conditions: Setaria viridis, pre-emergence
# Description: as §2
# [10] = test system: Johnsongrass; experiment: Preemergence Herbicidal Activity, Johnsongrass; conditions: Sorghum halepense, pre-emergence
# Description: as §2
# [11] = test system: Cotton; experiment: Postemergence Herbicidal Activity, Cotton; conditions: Gossypium hirsutum, post-emergence
# Description: as §1
# [12] = test system: Soybean; experiment: Postemergence Herbicidal Activity, Soybean; conditions: Glycine max, post-emergence
# Description: as §2
# [13] = test system: Field Corn; experiment: Postemergence Herbicidal Activity, Field Corn; conditions: Zea mays, post-emergence
# Description: as §2
# [14] = test system: Rice; experiment: Postemergence Herbicidal Activity, Rice; conditions: Oryza sativa, post-emergence
# Description: as §2
# [15] = test system: Wheat; experiment: Postemergence Herbicidal Activity, Wheat; conditions: Triticum aestivum, post-emergence
# Description: as §2
# [16] = test system: Morningglory; experiment: Postemergence Herbicidal Activity, Morningglory
# Description: as §1
# [17] = test system: Velvetleaf; experiment: Postemergence Herbicidal Activity, Velvetleaf; conditions: Abutilon theophrasti, post-emergence
# Description: as §1
# [18] = test system: Barnyardgrass; experiment: Postemergence Herbicidal Activity, Barnyardgrass; conditions: Echinochloa crus-galli, post-emergence
# Description: as §2
# [19] = test system: Green Foxtail; experiment: Postemergence Herbicidal Activity, Green Foxtail; conditions: Setaria viridis, post-emergence
# Description: as §2
# [20] = test system: Johnsongrass; experiment: Postemergence Herbicidal Activity, Johnsongrass; conditions: Sorghum halepense, post-emergence
# Description: as §2
# [21] = test system: Field Bindweed; experiment: Preemergence Herbicidal Activity, Field Bindweed; conditions: pre-emergence
# Description: as §1
# [22] = test system: Field Bindweed; experiment: Postemergence Herbicidal Activity, Field Bindweed; conditions: post-emergence, 8.0 kg/ha
# Description: as §1
structure (smiles),measurement,setting,value
"CCCS(=O)(=O)N(c1cc(-n2nnn(CCCF)c2=O)c(F)cc1Cl)S(=O)(=O)CCC [Compound 26, 1-[4-chloro-2-fluoro-5-[bis(N--propylsulfonyl)amino]phenyl]-1,4-dihydro-4-(3-fluoropropyl)-5H--tetrazol-5-one]",plant injury at 500 g/ha,[1]; 0.5 kg/ha,50%
same,plant injury at 500 g/ha,"[2]; Glycine max, pre-emergence, 0.5 kg/ha",0%
same,plant injury at 500 g/ha,[3]; 0.5 kg/ha,90%
same,plant injury at 500 g/ha,[4]; 0.5 kg/ha,20%
same,plant injury at 500 g/ha,[5]; 0.5 kg/ha,60%
same,pest or weed control at 500 g/ha,[6]; 0.5 kg/ha,60%
same,pest or weed control at 500 g/ha,[7]; 0.5 kg/ha,100%
same,pest or weed control at 500 g/ha,[8]; 0.5 kg/ha,100%
same,pest or weed control at 500 g/ha,[9]; 0.5 kg/ha,60%
same,pest or weed control at 500 g/ha,[10]; 0.5 kg/ha,95%
same,plant injury at 500 g/ha,[11]; 0.5 kg/ha,100%
same,plant injury at 500 g/ha,[12]; 0.5 kg/ha,50%
same,plant injury at 500 g/ha,[13]; 0.5 kg/ha,100%
same,plant injury at 500 g/ha,[14]; 0.5 kg/ha,40%
same,plant injury at 500 g/ha,[15]; 0.5 kg/ha,90%
same,pest or weed control at 500 g/ha,"[16]; Ipomoea, post-emergence, 0.5 kg/ha",100%
same,pest or weed control at 500 g/ha,[17]; 0.5 kg/ha,100%
same,pest or weed control at 500 g/ha,[18]; 0.5 kg/ha,80%
same,pest or weed control at 500 g/ha,[19]; 0.5 kg/ha,80%
same,pest or weed control at 500 g/ha,[20]; 0.5 kg/ha,70%
CCCS(=O)(=O)N(c1cc(-n2nnn(CCCF)c2=O)ccc1Cl)S(=O)(=O)CCC [Compound 23],plant injury at 8000 g/ha,[1]; 8.0 kg/ha,30%
same,plant injury at 8000 g/ha,"[2]; Glycine max, pre-emergence, 8.0 kg/ha",10%
same,plant injury at 8000 g/ha,[3]; 8.0 kg/ha,90%
same,plant injury at 8000 g/ha,[4]; 8.0 kg/ha,20%
same,plant injury at 8000 g/ha,[5]; 8.0 kg/ha,40%
same,pest or weed control at 8000 g/ha,[21]; 8.0 kg/ha,70%
same,pest or weed control at 8000 g/ha,[6]; 8.0 kg/ha,70%
same,pest or weed control at 8000 g/ha,[7]; 8.0 kg/ha,100%
same,pest or weed control at 8000 g/ha,[8]; 8.0 kg/ha,80%
same,pest or weed control at 8000 g/ha,[9]; 8.0 kg/ha,95%
same,pest or weed control at 8000 g/ha,[10]; 8.0 kg/ha,50%
same,plant injury at 8000 g/ha,[11]; 8.0 kg/ha,60%
same,plant injury at 8000 g/ha,[12]; 8.0 kg/ha,40%
same,plant injury at 8000 g/ha,[13]; 8.0 kg/ha,30%
same,plant injury at 8000 g/ha,[15]; 8.0 kg/ha,20%
same,pest or weed control at 8000 g/ha,[22],50%
same,pest or weed control at 8000 g/ha,"[16]; Ipomoea, post-emergence, 8.0 kg/ha",60%
same,pest or weed control at 8000 g/ha,[17]; 8.0 kg/ha,100%
same,pest or weed control at 8000 g/ha,[18]; 8.0 kg/ha,40%
same,pest or weed control at 8000 g/ha,[19]; 8.0 kg/ha,40%
same,pest or weed control at 8000 g/ha,[20]; 8.0 kg/ha,40%
"CCS(=O)(=O)Nc1cc(-n2nnn(CCCF)c2=O)c(F)cc1Cl [Compound 31, 1-[4-Chloro-2-fluoro-5-(N--ethylsulfonylamino)phenyl]-1,4-dihydro-4-(3-fluoropropyl)-5H--tetrazol-5-one potassium salt]",plant injury at 250 g/ha,[1]; 0.25 kg/ha,100%
same,Preemergence Herbicidal Activity,"[2]; 0.25 kg/ha, potassium salt",10 % Control
same,plant injury at 250 g/ha,[3]; 0.25 kg/ha,30%
same,plant injury at 250 g/ha,[4]; 0.25 kg/ha,40%
same,plant injury at 250 g/ha,[5]; 0.25 kg/ha,20%
same,pest or weed control at 250 g/ha,[21]; 0.25 kg/ha,100%
same,pest or weed control at 250 g/ha,[6]; 0.25 kg/ha,100%
same,pest or weed control at 250 g/ha,[7]; 0.25 kg/ha,100%
same,pest or weed control at 250 g/ha,[8]; 0.25 kg/ha,95%
same,pest or weed control at 250 g/ha,[9]; 0.25 kg/ha,50%
same,pest or weed control at 250 g/ha,[10]; 0.25 kg/ha,70%
same,plant injury at 250 g/ha,[12]; 0.25 kg/ha,80%
same,plant injury at 250 g/ha,[13]; 0.25 kg/ha,30%
same,plant injury at 250 g/ha,[14]; 0.25 kg/ha,40%
same,plant injury at 250 g/ha,[15]; 0.25 kg/ha,40%
same,Postemergence Herbicidal Activity,"[16]; 0.25 kg/ha, potassium salt",100 % Control
same,pest or weed control at 250 g/ha,[18]; 0.25 kg/ha,80%
same,pest or weed control at 250 g/ha,[19]; 0.25 kg/ha,60%
same,pest or weed control at 250 g/ha,[20]; 0.25 kg/ha,60%
"CCS(=O)(=O)N(c1cc(-n2nnn(C)c2=O)c(F)cc1Cl)S(=O)(=O)CC [Compound 41, 1-[4-Chloro-2-fluoro-5-[bis(N--ethylsulfonyl)amino]phenyl]-4,5-dihydro-4-methyl-5H--tetrazol-5-one]",plant injury at 2000 g/ha,[1]; 2.0 kg/ha,95%
same,plant injury at 2000 g/ha,"[2]; Glycine max, pre-emergence, 2.0 kg/ha",50%
same,plant injury at 2000 g/ha,[3]; 2.0 kg/ha,40%
same,plant injury at 2000 g/ha,[4]; 2.0 kg/ha,10%
same,plant injury at 2000 g/ha,[5]; 2.0 kg/ha,10%
same,pest or weed control at 2000 g/ha,[21]; 2.0 kg/ha,100%
same,pest or weed control at 2000 g/ha,[6]; 2.0 kg/ha,100%
same,pest or weed control at 2000 g/ha,[7]; 2.0 kg/ha,100%
same,pest or weed control at 2000 g/ha,[8]; 2.0 kg/ha,80%
same,pest or weed control at 2000 g/ha,[9]; 2.0 kg/ha,95%
same,pest or weed control at 2000 g/ha,[10]; 2.0 kg/ha,20%
